Laboratory results: PubChem BioAssay AID1259407 (Chemical Carcinogenesis Research Information System (CCRIS), 2018)
The source made the active and inactive calls. The rule behind the calls is not given here.

System: CCRIS mutagenicity, Ames/micronucleus/aberration tests
Test: CCRIS mutagenicity studies
[1] = Test System: AMES SALMONELLA TYPHIMURIUM, Strain/Indicator: TA100, Metabolic Activation: NONE, Method: STANDARD PLATE

Measured: mutagenic call

CCOP(=S)(OCC)SCn1c(=O)oc2cc(Cl)ccc21
inactive: Test System: AMES SALMONELLA TYPHIMURIUM, Strain/Indicator: TA97A, Metabolic Activation: NONE, Method: STANDARD PLATE inactive; negative | Test System: AMES SALMONELLA TYPHIMURIUM, Strain/Indicator: TA97A, Metabolic Activation: RAT, CECAL CELL FREE EXTRACT, Method: STANDARD PLATE inactive; negative | Test System: AMES SALMONELLA TYPHIMURIUM, Strain/Indicator: TA97A, Metabolic Activation: RAT, LIVER, S-9, AROCLOR 1254, Method: STANDARD PLATE inactive; negative | Test System: AMES SALMONELLA TYPHIMURIUM, Strain/Indicator: TA98, Metabolic Activation: NONE, Method: STANDARD PLATE inactive; negative | Test System: AMES SALMONELLA TYPHIMURIUM, Strain/Indicator: TA98, Metabolic Activation: RAT, CECAL CELL FREE EXTRACT, Method: STANDARD PLATE inactive; negative | Test System: AMES SALMONELLA TYPHIMURIUM, Strain/Indicator: TA98, Metabolic Activation: RAT, LIVER, S-9, AROCLOR 1254, Method: STANDARD PLATE inactive; negative | [1] inactive; negative | Test System: AMES SALMONELLA TYPHIMURIUM, Strain/Indicator: TA100, Metabolic Activation: RAT, CECAL CELL FREE EXTRACT, Method: STANDARD PLATE inactive; negative | Test System: AMES SALMONELLA TYPHIMURIUM, Strain/Indicator: TA100, Metabolic Activation: RAT, LIVER, S-9, AROCLOR 1254, Method: STANDARD PLATE inactive; negative

CC(C)CC(=O)Nc1snc2ccc(Cl)cc12
inactive: [1] inactive; negative | Test System: AMES SALMONELLA TYPHIMURIUM, Strain/Indicator: TA100, Metabolic Activation: S-9, Method: STANDARD PLATE inactive; negative | Test System: AMES SALMONELLA TYPHIMURIUM, Strain/Indicator: TA1537, Metabolic Activation: NONE, Method: STANDARD PLATE inactive; negative | Test System: AMES SALMONELLA TYPHIMURIUM, Strain/Indicator: TA1537, Metabolic Activation: S-9, Method: STANDARD PLATE inactive; negative

CN(N=O)C(C)(C)C
inactive: Test System: CHINESE HAMSTER V-79, Strain/Indicator: V-79/OUABAIN, Metabolic Activation: HAMSTER, HEPATOCYTES, Method: CELL-MEDIATED inactive; negative
